# According to BindingDB's records for doi:10.7270/Q2HM57BR (D3R/Abbott, 2015):
# Target: T1, UDP-3-O-acyl-N-acetylglucosamine deacetylase (Pseudomonas aeruginosa (strain ATCC 15692 / DSM 22644 / CIP 104116 / JCM 14847 / LMG 12228 / 1C / PRS 101 / PAO1), UniProt P47205)
# T1 sequence (P47205 whole entry): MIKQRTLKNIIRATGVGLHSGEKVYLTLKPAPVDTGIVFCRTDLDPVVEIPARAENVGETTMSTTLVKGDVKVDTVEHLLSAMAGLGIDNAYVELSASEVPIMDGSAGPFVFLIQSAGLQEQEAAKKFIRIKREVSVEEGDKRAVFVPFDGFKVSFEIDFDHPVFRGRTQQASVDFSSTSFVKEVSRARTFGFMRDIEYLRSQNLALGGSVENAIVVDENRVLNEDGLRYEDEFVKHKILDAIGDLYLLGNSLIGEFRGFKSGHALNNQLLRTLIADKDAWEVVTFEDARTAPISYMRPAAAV
# Assay: Thermofluor_Method1
row,Structure (SMILES),Kd [µM]
1,CC1(CNC(=O)c2ccc(C#Cc3ccccc3)cc2)NC(=O)NC1=O (stereo unspecified) [CS22],93.4
2,C[C@@H](O)[C@H](NC(=O)c1ccc(-c2ccccc2)cc1)C(=O)NCC1(C)NC(=O)NC1=O (stereo partly specified) [CS253],> 100
3,C[C@@H](O)[C@H](NC(=O)c1ccc(C#Cc2ccccc2)cc1)C(=O)NCC1(C)NC(=O)NC1=O (stereo partly specified) [CS254],> 100
4,C[C@@H](O)[C@H](NC(=O)c1ccc(C#CC#Cc2ccccc2)cc1)C(=O)NCC1(C)NC(=O)NC1=O (stereo partly specified) [CS255],> 100
5,C[C@@H](O)[C@H](NC(=O)c1ccc(-c2ccc(Br)cc2)cc1)C(=O)NCC1(C)NC(=O)NC1=O (stereo partly specified) [CS256],> 100
6,C[C@@H](O)[C@H](NC(=O)c1ccc(C#CC#Cc2ccccc2)cc1)C(=O)NO [CS257],0.00835
7,C[C@@H](O)[C@H](NC(=O)c1ccc(C#Cc2ccccc2)cc1)C(=O)NO [CS259],0.0201
8,CC1(CNC(=O)[C@H](CN)NC(=O)c2ccc(-c3ccccc3)cc2)NC(=O)NC1=O (stereo partly specified) [CS264],> 100
9,CC1(CNC(=O)[C@H](CN)NC(=O)c2ccc(C#Cc3ccccc3)cc2)NC(=O)NC1=O (stereo partly specified) [CS266],> 100
10,O=C(NO)[C@H]1COC(c2ccc([N+](=O)[O-])cc2)=N1 [CS268],7.25
11,O=C(NO)[C@H]1COC(c2ccc(OCc3cccc(F)c3)c(OC(F)(F)F)c2)=N1 [CS269],> 100
12,O=C(NO)[C@H]1COC(c2cc3cc(F)ccc3[nH]2)=N1 [CS272],1.5
13,CCCc1ccc(-c2ccc(C3=N[C@@H](C(=O)NO)CO3)cc2)cc1 [CS274],15.6
14,O=C(NO)c1csc(-c2ccc(OC(F)(F)F)c(Cl)c2)n1 [CS275],21.5

# Other lines, results leading:
row,Kd [µM],Structure (SMILES)
1,> 100,CC1(CNC(=O)c2ccc(-c3ccccc3)cc2)NC(=O)NC1=O (stereo unspecified) [CS21]
2,> 100,CC1(CNC(=O)c2ccc(-c3ccc(Br)cc3)cc2)NC(=O)NC1=O (stereo unspecified) [CS23]
3,63.9,CC1(CNC(=O)c2ccc(C#CC#Cc3ccccc3)cc2)NC(=O)NC1=O (stereo unspecified) [CS243]
4,0.393,NC[C@H](NC(=O)c1ccc(-c2ccccc2)cc1)C(=O)NO [CS249]
5,0.19,NC[C@H](NC(=O)c1ccc(-c2ccc(Br)cc2)cc1)C(=O)NO [CS250]
6,0.0586,NC[C@H](NC(=O)c1ccc(C#CC#Cc2ccccc2)cc1)C(=O)NO [CS252]
7,0.0332,C[C@@H](O)[C@H](NC(=O)c1ccc(-c2ccc(Br)cc2)cc1)C(=O)NO [CS258]
8,0.0745,C[C@@H](O)[C@H](NC(=O)c1ccc(-c2ccccc2)cc1)C(=O)NO [CS263]
9,> 100,CC1(CNC(=O)[C@H](CN)NC(=O)c2ccc(C#CC#Cc3ccccc3)cc2)NC(=O)NC1=O (stereo partly specified) [CS265]
10,> 100,CC1(CNC(=O)[C@H](CN)NC(=O)c2ccc(-c3ccc(Br)cc3)cc2)NC(=O)NC1=O (stereo partly specified) [CS267]
11,3.8,O=C(NO)[C@H]1COC(c2ccc(OC(F)(F)F)c(Cl)c2)=N1 [CS270]
12,1.03,O=C(NO)[C@H]1COC(c2ccc(F)c(C(F)(F)F)c2)=N1 [CS271]
13,> 100,CN(C)c1ccc(C2=N[C@@H](C(=O)NO)CO2)cc1 [CS273]
14,28.5,O=C(NO)C1=C[SiH2]C(c2ccc(F)cc2)=N1 (stereo unspecified) [CS276]
15,2.91,O=C(NO)c1csc(-c2ccc(F)c(C(F)(F)F)c2)n1 [CS277]
16,28.2,CN(C)c1ccc(-c2nc(C(=O)NO)cs2)cc1 [CS278]
17,11.1,O=C(NO)[C@H]1COC(c2ccc(F)cc2)=N1 [CS279]
